The record followed here is patent US20050014810A1, “Use of substituted 2 phenylbenzimidazoles as medicaments” (Boehringer Ingelheim International GmbH, priority 2003, published 2005).

Where a name gives a salt, the structure may show the parent alone. Some results are limits rather than exact numbers.

Consider `CC(C)c1ccc2c(c1)CC[C@H]1[C@](C)(Cn3c(-c4cccc(OCC(=O)O)c4)nc4cc(-c5cccc(CN6CCOCC6)c5)ccc43)CCC[C@]21C` (as salt: trifluoroacetate), for which the melting point (commonly the temperature, or range, at which the solid turns liquid) was 133 °C (dec.).
For the compound `CC(C)c1ccc2c(c1)CC[C@H]1[C@](C)(Cn3c(-c4cccc(OCC(=O)O)c4)nc4cc(-c5cccc([NH+]([O-])O)c5)ccc43)CCC[C@]21C` (stereo partly shown), the melting point fell in the range of 258 to 262 °C.
The result for `CC(=O)Nc1ccc(OCC(=O)O)cc1-c1nc2cc(-c3ccccc3)ccc2n1C[C@]1(C)CCC[C@]2(C)c3ccc(C(C)C)cc3CC[C@@H]12` reads 179 °C; that for `CC(C)c1ccc2c(c1)CC[C@H]1[C@](C)(Cn3c(-c4cccc(N5CCC(C(=O)O)CC5)c4)nc4cc(-c5ccccc5)ccc43)CCC[C@]21C`, 166 to 178 °C.
The result for `CC(C)c1ccc2c(c1)CC[C@H]1[C@](C)(Cn3c(-c4ccc(CCC(=O)O)cc4)nc4cc(-c5ccccc5)ccc43)CCC[C@]21C` reads 298 to 300 °C.
To `CC(C)c1ccc2c(c1)CC[C@H]1[C@](C)(Cn3c(-c4cccc(OCC(=O)O)c4)nc4cc(-c5ccccc5N)ccc43)CCC[C@]21C` belongs 186 to 190 °C; to `CC(C)c1ccc2c(c1)CC[C@H]1[C@](C)(Cn3c(-c4cc(OCC(=O)O)ccc4N)nc4cc(-c5ccccc5)ccc43)CCC[C@]21C`, > 295 °C (dec.); to `CC(C)c1ccc2c(c1)CC[C@H]1[C@](C)(Cn3c(-c4cccc(OCC(=O)O)c4)nc4cc(-c5cccc(NS(C)(=O)=O)c5)ccc43)CCC[C@]21C`, 166 °C (dec.).
`COc1cc(OCCCC(=O)O)ccc1-c1nc2cc(/C=C/c3ccccc3)ccc2n1C[C@]1(C)CCC[C@]2(C)c3ccc(C(C)C)cc3CC[C@@H]12`: the melting point lay in the range of 59 to 72 °C.
To `CC(C)c1ccc2c(c1)CC[C@H]1[C@](C)(Cn3c(-c4cccc(NCC(=O)O)c4)nc4cc(-c5ccccc5)ccc43)CCC[C@]21C` belongs 180 °C; to `CC(C)c1ccc2c(c1)CC[C@H]1[C@](C)(Cn3c(-c4cccc(OCC(=O)O)c4)nc4cc(-c5cccc(CN(C)C)c5)ccc43)CCC[C@]21C` (as salt: trifluoroacetate), 127 °C; to `CC(C)c1ccc2c(c1)CC[C@H]1[C@](C)(Cn3c(-c4cccc(OCC(=O)O)c4)nc4cc(-c5cccc(O)c5)ccc43)CCC[C@]21C`, 238 to 242 °C.
`CC(C)c1ccc2c(c1)CC[C@H]1[C@](C)(Cn3c(-c4cc(OCC(=O)O)ccc4NC(=O)C(F)(F)F)nc4cc(-c5ccccc5)ccc43)CCC[C@]21C` showed a melting point of 168 to 172 °C.
To `CC(C)c1ccc2c(c1)CC[C@H]1[C@](C)(Cn3c(-c4cccc(NC(=O)Cc5nnn[nH]5)c4)nc4cc(-c5ccccc5)ccc43)CCC[C@]21C` belongs 200 °C.
To `COc1cc(OCCCC(=O)O)ccc1-c1nc2cc(-c3cccc(C#N)c3)ccc2n1C[C@]1(C)CCC[C@]2(C)c3ccc(C(C)C)cc3CC[C@@H]12` belongs 185 °C.
Take `CC(=O)Nc1cccc(-c2ccc3c(c2)nc(-c2cccc(OCC(=O)O)c2)n3C[C@]2(C)CCC[C@]3(C)c4ccc(C(C)C)cc4CC[C@@H]23)c1`: the melting point is 175 °C (dec.).
To `CC(C)c1ccc2c(c1)CC[C@H]1[C@](C)(Cn3c(-c4cccc(NC(=O)CC(=O)O)c4)nc4cc(-c5ccccc5)ccc43)CCC[C@]21C` belongs 210 to 215 °C; to `CC(C)c1ccc2c(c1)CC[C@H]1[C@](C)(Cn3c(-c4cccc(OCCCC(=O)O)c4)nc4cc(-c5ccccc5)ccc43)CCC[C@]21C`, 144 to 151 °C; to `CC(C)c1ccc2c(c1)CC[C@H]1[C@](C)(Cn3c(-c4cccc(NC(=O)C(=O)O)c4)nc4cc(-c5ccccc5)ccc43)CCC[C@]21C`, 235 °C.
